Publication PMC7587356, “High-Throughput Screening for Inhibitors of the SARS-CoV-2 Protease Using a FRET-Biosensor” (Molecules, 2020)
Where two headings read alike, the source gives them in different places.

Target: SARS-CoV-2 3CLpro (Severe acute respiratory syndrome coronavirus 2, UniProt P0DTD1)
Assay: biochemical
Type: biochemical
Set-up: Replicate_1 / Replicate_2 / mean / mean (LOPAC_screen_w_protease): unit not given here
Settings: for mean / Replicate_1 / Replicate_2 / mean (LOPAC screen with protease) / Replicate_1 (LOPAC screen with protease) / Replicate_2 (LOPAC screen with protease): sheet LOPAC_screen_w_protease; for mean (LOPAC screen with protease) / Replicate_1 (LOPAC screen with protease) / Replicate_2 (LOPAC screen with protease): primary screen at 5 µM
[1] = primary screen with protease, mean of two replicates
[2] = primary screen with protease, replicate 1
[3] = primary screen with protease, replicate 2
[4] = primary screen with protease, 5 µM, mean of two replicates
[5] = primary screen with protease, 5 µM, replicate 1
[6] = primary screen with protease, 5 µM, replicate 2
[7] = LOPAC1280 primary screen with protease, 5 µM compound, mean of the two replicates
[8] = LOPAC1280 primary screen with protease, 5 µM compound, replicate 1
[9] = LOPAC1280 primary screen with protease, 5 µM compound, replicate 2
[10] = primary screen with protease, compound at 5 µM, mean of two replicates
[11] = primary screen with protease, compound at 5 µM, replicate 1
[12] = primary screen with protease, compound at 5 µM, replicate 2
[13] = LOPAC1280 primary screen at 5 µM, with protease, mean of the two replicates
[14] = LOPAC1280 primary screen at 5 µM, with protease, replicate 1
[15] = LOPAC1280 primary screen at 5 µM, with protease, replicate 2

## NC(N)=NCc1cccc(I)c1.NC(N)=NCc1cccc(I)c1.O=S(=O)(O)O [m-Iodobenzylguanidine hemisulfate]
[1]
  mean: 2.496
[2]
  Replicate_1: 1.063
[3]
  Replicate_2: 3.929

## Cl.Cl.Oc1ccc2c3c1O[C@H]1c4[nH]c5c(c4C[C@@]4(O)[C@@H](C2)N(CC2CC2)CC[C@]314)C[C@@]1(O)[C@H]2Cc3ccc(O)c4c3[C@@]1(CCN2CC1CC1)[C@H]5O4 [nor-Binaltorphimine dihydrochloride]
Mean of two replicates
  mean (LOPAC screen with protease): 34.0021
Replicate 1
  Replicate_1 (LOPAC screen with protease): 34.0521
Replicate 2
  Replicate_2 (LOPAC screen with protease): 33.9521

## Cl.Nc1cc(Cl)c(N=C2NCCN2)c(Cl)c1 [p-Aminoclonidine hydrochloride]
[4]
  mean: 0.1922
[5]
  Replicate_1: 0.5913
[6]
  Replicate_2: -0.207

## O=C1C=CC(=O)C=C1 [p-Benzoquinone]
[7]
  mean (LOPAC_screen_w_protease): 2.118
[8]
  Replicate_1 (LOPAC_screen_w_protease): 1.8862
[9]
  Replicate_2 (LOPAC_screen_w_protease): 2.35

## N[C@@H](Cc1ccc(F)cc1)C(=O)O [p-Fluoro-L-phenylalanine]
[7]
  mean (LOPAC_screen_w_protease): 2.051
[8]
  Replicate_1 (LOPAC_screen_w_protease): 4.147
[9]
  Replicate_2 (LOPAC_screen_w_protease): -0.04537

## Cl.Clc1cc(I)cc(Cl)c1NC1=NCCN1 [p-Iodoclonidine hydrochloride]
[1]
  mean: 2.258
[2]
  Replicate_1: 3.3723
[3]
  Replicate_2: 1.143

## COc1ccccc1N1CCN(CCN(C(=O)c2ccc(F)cc2)c2ccccn2)CC1.Cl.Cl [p-MPPF dihydrochloride]
Mean of two replicates
  mean (LOPAC screen with protease): 7.242
Replicate 1
  Replicate_1 (LOPAC screen with protease): 5.881
Replicate 2
  Replicate_2 (LOPAC screen with protease): 8.603

## COc1ccccc1N1CCN(CCN(C(=O)c2ccc(I)cc2)c2ccccn2)CC1.Cl [p-MPPI hydrochloride]
[10]
  mean: 3.1199
[11]
  Replicate_1: 5.19
[12]
  Replicate_2: 1.05

## O=c1c(O)c(-c2ccc(O)c(O)c2)oc2cc(O)cc(O)c12 [quercetin, reference compound]
read-out: inhibition of 3CLpro in the primary screen
  inhibition at 5 µM: 1.9%

## (+)-Catechin Hydrate
Mean of two replicates
  mean (LOPAC screen with protease): 22.7149
Replicate 1
  Replicate_1 (LOPAC screen with protease): 22.57
Replicate 2
  Replicate_2 (LOPAC screen with protease): 22.8597

## (+)-Cyclazocine
LOPAC1280 at 5 µM, mean of two replicates
  mean: 1.031
LOPAC1280 at 5 µM, replicate 1
  Replicate_1: 2.203
LOPAC1280 at 5 µM, replicate 2
  Replicate_2: -0.1419

## (-)-3-Methoxynaltrexone hydrochloride
[7]
  mean: 5.384
[8]
  Replicate_1: 4.034
[9]
  Replicate_2: 6.735

## Ceramide
[10]
  mean: 2.999
[11]
  Replicate_1: 2.718
[12]
  Replicate_2: 3.28

## Foliosidine
Primary screen of LOPAC1280 at 5 µM with protease, mean of the two replicates
  mean: 3.597
Primary screen of LOPAC1280 at 5 µM with protease, replicate 2
  Replicate_2: 2.375

## L-Methionine sulfoximine
  Replicate_1 (LOPAC_screen_w_protease): 2.433
  Replicate_2 (LOPAC_screen_w_protease): 0.2989
  mean (LOPAC_screen_w_protease): 1.366

## MDL 26,630 trihydrochloride
[7]
  mean: 6.178
[8]
  Replicate_1: 5.659
[9]
  Replicate_2: 6.697

## Oligomycin A
[7]
  mean: 6.143
[8]
  Replicate_1: 3.7549
[9]
  Replicate_2: 8.531

## Phenylbenzene-omega-phosphono-alpha-amino acid
[13]
  mean: 0.7227
[14]
  Replicate_1: 0.6047
[15]
  Replicate_2: 0.8406

## Picrotoxin
[7]
  mean: 4.15
[8]
  Replicate_1: 3.321
[9]
  Replicate_2: 4.978

## R(-)-SCH-12679 maleate
[13]
  mean: 0.5011
[14]
  Replicate_1: 0.9263
[15]
  Replicate_2: 0.07597

## Ro 8-4304
[4]
  mean: 0.161
[5]
  Replicate_1: -1.418
[6]
  Replicate_2: 1.74

## S(-)-DS 121 hydrochloride
[1]
  mean: 2.32
[2]
  Replicate_1: 2.977

## S-Nitroso-N-acetylpenicillamine
[7]
  mean: 5.369
[8]
  Replicate_1: 5.411
[9]
  Replicate_2: 5.326

## trans-(±)-ACPD
[8]
  Replicate_1 (LOPAC_screen_w_protease): 2.281
[9]
  Replicate_2 (LOPAC_screen_w_protease): 1.598
